Values of other authors as cited in patent US9750251B2, “Liquid herbicidal preparations” (BAYER INTELLECTUAL PROPERTY GMBH, priority 2008, dated 2017).
≈ marks a conversion by molar mass, not a printed value.

Settings: at 25° C.

CCOC1Oc2ccc(OS(C)(=O)=O)cc2C1(C)C (racemic) [ethofumesate]
water solubility: 50 µg/mL (≈ 175 µM)
